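Values below derive from 48-hour exposures of cells grown in 96-well plates, with endpoints linearly interpolated between the two concentrations bracketing the appropriate inhibition level. At the GI50, growth is halved. TGI: concentration producing complete growth inhibition.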
What was measured:
Test in all cases: growth of human tumour cells (NCI), 48 h
ACHN renal = system: ACHN renal
COLO 205 colon = system: COLO 205 colon
KM12 colon = system: KM12 colon
OVCAR-4 ovarian = system: OVCAR-4 ovarian
OVCAR-8 ovarian = system: OVCAR-8 ovarian
SW-620 colon = system: SW-620 colon
U251 CNS = system: U251 CNS
HOP-62 NSCLC = system: HOP-62 NSCLC
SK-MEL-5 melanoma = system: SK-MEL-5 melanoma
SNB-75 CNS = system: SNB-75 CNS

SMILES	GI50 (ACHN renal) [µM]	TGI (ACHN renal) [µM]	GI50 (COLO 205 colon) [µM]	TGI (COLO 205 colon) [µM]	GI50 (KM12 colon) [µM]	TGI (KM12 colon) [µM]	GI50 (OVCAR-4 ovarian) [µM]	TGI (OVCAR-4 ovarian) [µM]	GI50 (OVCAR-8 ovarian) [µM]	TGI (OVCAR-8 ovarian) [µM]	GI50 (SW-620 colon) [µM]	TGI (SW-620 colon) [µM]	GI50 (U251 CNS) [µM]	TGI (U251 CNS) [µM]	TGI (HOP-62 NSCLC) [µM]	TGI (SK-MEL-5 melanoma) [µM]	TGI (SNB-75 CNS) [µM]	GI50 (HOP-62 NSCLC) [µM]	GI50 (SK-MEL-5 melanoma) [µM]	GI50 (SNB-75 CNS) [µM]
C=C1[C@@H](O)O[C@H]2[C@H]1C[C@H](OC(C)=O)[C@]13C(=O)O[C@H]4C[C@](C)(O)[C@H]([C@H]41)C31C=C(C)[C@]2(O)O1	49.8	> 100	48.9	> 100	36.8	> 100	> 100	> 100	22.7	58.8	29.8	> 100	24.2	64.7						
CC1=C(CC2C(=O)N(c3ccccc3)S(=O)(=O)NC2C)C(=O)N(c2ccccc2)S(=O)(=O)N1C (configuration not stated)		> 100		> 100		> 100		> 100		> 100		> 100			> 100	> 100	> 100			
Cc1[nH]c(-c2cc(N)ccc2Cl)c2c1C(=O)CCCC2	3.42	> 100	3.91	> 100	5.47	> 100	2.95	> 100	3.26	> 100	12.1	55.6	5.75	> 100	> 100	30.4	5.2	2.29	6.15	0.183
O=C(O)c1ccccc1NC(=S)c1ccccc1		84.6		> 100		> 100		29		> 100		> 100		> 100	> 100	> 100				
Cc1ccccc1-n1c(N)c(-c2nc3ccccc3[nH]2)sc1=S		> 100		49		39.9		78.3		84.2		72.5			46	36.6	56.6			
O=C1C=C(O)C(=Cc2c(O)cc(O)cc2O)C(O)=C1				> 100		> 100		> 100		> 100		> 100		> 100	> 100	> 100	> 100			
O=C(NCCNCCO)c1cccc2ccc(-c3ccccc3)nc12		5.65		13.6		18.3		18.5		19.5		14.2		17.4	22.8	12.5	22.3			
CCN1C(=O)N(CC)C2C1NN=c1s/c(=C\c3ccc(F)cc3)c(=O)n12 (configuration not stated)	0.336	> 100	0.277	1.43	0.0913	> 100	0.786	> 100	0.43	> 100	0.14	> 100	0.241	> 100	> 100	5.7	0.611	0.287	0.0865	0.0474
CC1C=CC(OC(=O)C(C)(O)CCC(O)(C(=O)OC2CC(O)C(C(C)C)CC2(C)O)C(C)C)(C(C)C)CC1 (configuration not stated)	0.322	0.949	0.747	1.61	0.689	1.45	0.746	1.71	0.835	2.69	0.604	1.41	0.582	1.32	1.66	1.03	1.79	0.641	0.377	0.542
COC(=O)c1cc(-c2ccc(OC)c(OC)c2)[nH]c1N/N=C/c1c(Cl)cccc1Cl	1.18	13.2	0.901	4.95	0.4	9.69	1.67	12.1	1.31	8.67	0.443	12.7	0.671	2.43	10.1	4.56	2.21	1.17	0.387	0.379
COc1cc(C(=O)Nc2cc(O)c(CC=C(C)C)c(O)c2)cc2c1O[C@]1(C)CC[C@@H](O)C(C)(C)[C@H]1C2	1.78	24.3	1.37	7.98	1.76	12.9	10.1	> 100	0.623	44.2	1.15	11.9	0.0399	17.4	8.81	3.51	17	0.46	1.13	0.33
COC(=O)C(C(=O)C(=O)Nc1ccc([N+](=O)[O-])cc1)c1nc2ccc([N+](=O)[O-])cc2[nH]c1=O (configuration not stated)		> 100		> 100		> 100		> 100		> 100		> 100		> 100	> 100	> 100	> 100			
C=CCc1cc(Nc2c3ccc(Cl)cc3nc3ccc(OC)cc23)cc(CN(CC)CC)c1O	2.12	13.1	1.39	3	2.08	12.3	1.68	12.2	1.44		1.97	11.4	0.802	10.8	13.5	2.49	19.3	2.92	1.24	3.85
CN1CCc2nc3sc(C(N)=O)c(N)c3c(-c3cccs3)c2C1			1.43	3.66	2.7	> 100	7.38	> 100	2.7	> 100	4.02	> 100	3.18	> 100	> 100	5.24	8.03	3.27	1.43	2.81
